PubChem BioAssay (NCI)
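Method: 48-hour compound exposure of cells in 96-well plates, five concentrations, linear interpolation of endpoints. TGI is the concentration that stops growth completely.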

What was measured:
Assay in all cases: NCI-60 cell line screen, 48 h
A549 NSCLC = system: A549 NSCLC
LOX IMVI melanoma = system: LOX IMVI melanoma
OVCAR-4 ovarian = system: OVCAR-4 ovarian
OVCAR-8 ovarian = system: OVCAR-8 ovarian
RPMI-8226 leukemia = system: RPMI-8226 leukemia
SK-MEL-2 melanoma = system: SK-MEL-2 melanoma
SK-MEL-28 melanoma = system: SK-MEL-28 melanoma
SK-MEL-5 melanoma = system: SK-MEL-5 melanoma
SN12C renal = system: SN12C renal
SW-620 colon = system: SW-620 colon
T-47D breast = system: T-47D breast
U251 CNS = system: U251 CNS
HCT-15 colon = system: HCT-15 colon

| SMILES | TGI (A549 NSCLC) [µM] | TGI (LOX IMVI melanoma) [µM] | TGI (OVCAR-4 ovarian) [µM] | TGI (OVCAR-8 ovarian) [µM] | TGI (RPMI-8226 leukemia) [µM] | TGI (SK-MEL-2 melanoma) [µM] | TGI (SK-MEL-28 melanoma) [µM] | TGI (SK-MEL-5 melanoma) [µM] | TGI (SN12C renal) [µM] | TGI (SW-620 colon) [µM] | TGI (T-47D breast) [µM] | TGI (U251 CNS) [µM] | TGI (HCT-15 colon) [µM] |
| --- | --- | --- | --- | --- | --- | --- | --- | --- | --- | --- | --- | --- | --- |
| COC1=CC(=O)C(O)=C(C[C@@]2(C)[C@@H]3CCC[C@H](COC(=O)CCCCCNC(=O)OC(C)(C)C)[C@@]3(C)CC[C@@H]2C)C1=O | > 10 | > 10 | > 10 | > 10 | > 10 | > 10 | > 10 | > 10 | > 10 | > 10 | > 10 | > 10 |  |
| C/C(Cl)=N\OC(=O)Nc1ccccc1C(F)(F)F | > 100 | 29.2 | 26.9 | > 100 | 45.2 | > 100 | 42.3 | > 100 | > 100 | 36.1 | > 100 | > 100 | > 100 |
| O=[N+]([O-])CC(SCc1ccccc1)c1ccc2c(c1)OCO2 (stereo not drawn) | 21.8 | 3.39 | 27.1 | 19.2 | 4.03 | 39.3 | 17 | 25 | 25.7 | 15.4 | 47.7 | 18.7 | 15.9 |
| COc1ccc(C(=O)N2CCN(c3ccc4c(c3)OCC(=O)N4)CC2)cc1 | > 100 | > 100 | > 100 | > 100 | > 100 | > 100 | > 100 | > 100 | > 100 | > 100 | > 100 | > 100 | > 100 |
| CCN1/C(=C/c2ccc3ccccc3[n+]2CC)C=Cc2ccccc21 | 17.1 | 4.86 | 19.8 | 12.4 | > 23.4 | 3.9 | 15.9 | 3.77 | 12.8 | 14.5 | 6.31 | 11.1 | 34.1 |
| C=CCN1C(=O)/C(=C/c2ccc(C)cc2)N=C1SC/C=C/C | > 100 | 44.5 | > 100 | > 100 | 36.6 | 57.7 | > 100 | 44.6 | > 100 | > 100 | 83.3 | 77.6 | > 100 |
| COC(=O)[C@H]1[C@H](C(=O)OC)[C@@H](C)c2c(ccc3c2[nH]c2ccccc23)[C@@H]1C | > 100 | > 100 | > 100 | > 100 | > 100 | > 100 | > 100 | > 100 | 33.5 | > 100 | > 100 | > 100 | > 100 |
| Oc1ccc(-c2nc3cc(C(F)(F)F)ccc3n2CC2CCCN3CCCCC23)cc1 (stereo not drawn) |  | 28.8 | 31.2 | 29.5 | 31.5 | 27.9 | 29.6 | 27.7 |  | 28.4 | 47.6 | 28 | 30.1 |
| FC(F)(F)c1ccc2c(c1)nc(Cc1ccccc1)n2C[C@@H]1CCCN2CCCCC12 (stereo partly drawn) | 28.8 | 30.3 | 31.5 | 29.7 | 82.7 | 30.6 | 32.3 | 29.6 | 27 | > 65.7 | 30.4 | 29.2 | 30.6 |
| OC(c1cccs1)c1cc2ccccc2s1 (stereo not drawn) | > 10 | > 10 | > 10 | > 10 | > 10 | > 10 | > 10 | > 10 | > 10 | > 10 | > 10 | > 10 | > 10 |
| COC(=O)c1ccc2n1C1CC3CC(CC2C3)C1 | > 100 | > 100 | > 100 | > 100 | > 100 | > 100 | > 100 | > 100 | > 100 | > 100 | > 100 | > 100 | > 100 |
| NC1CC2C3CCC2C1C3=O (stereo not drawn) | > 100 | > 100 | > 100 | > 100 |  | > 100 | > 100 | > 100 | > 100 | > 100 | > 100 | > 100 | > 100 |
| CC(=O)Oc1ccn2nc(C)c(Br)c2c1Br | 57.6 | 36 | 30.6 | > 83.7 |  | > 67 | 45 | 31.7 | > 57.8 | > 73.6 | > 76.8 | > 100 | 33.6 |
| CCOC(OCC)C(CC)[Se]c1ccccc1[N+](=O)[O-] (stereo not drawn) | > 63.3 | 37.8 | > 100 | 49.9 | 23 | > 90.4 | > 100 | 30.9 | > 61.2 | > 100 | > 100 | 15.4 | 22.2 |
| N#CC1C(=O)Nc2sc(C(=O)c3ccc(Br)cc3)c(N)c2C12CCCCC2 (stereo not drawn) | > 100 | > 100 | > 100 | > 100 | > 100 | 37.7 | 47.7 | 32.5 | > 100 | 69.4 | > 100 | > 100 | > 100 |
| CC1=C(C(=O)OCCO[N+](=O)[O-])C(c2ccccc2C(F)(F)F)C(C(=O)OC(C)C)=C(C)N1 (stereo not drawn) | > 100 | 27.3 | 93.4 | 64.7 | > 100 | 29.7 | 33.5 | 22.1 | 36.8 | > 100 | > 100 | 29.1 | 60.6 |
| C=C1CC/C=C(/C(=O)O)CC[C@H]2[C@@H]1CC2(C)C | > 100 | > 100 | > 100 |  | > 100 | > 100 | > 100 | > 100 | > 100 | > 100 | > 100 | > 100 | > 100 |
| O=c1nc2n(cc1/C=C\Br)C1CC(O)C(CO2)O1 (stereo not drawn) | > 100 | > 100 | > 100 | > 100 | > 100 |  | > 100 | > 100 | > 100 | > 100 | > 100 | > 100 | > 100 |

| SMILES | TGI (A549 NSCLC) [µM] | TGI (LOX IMVI melanoma) [µM] | TGI (OVCAR-4 ovarian) [µM] | TGI (OVCAR-8 ovarian) [µM] | TGI (RPMI-8226 leukemia) [µM] | TGI (SK-MEL-2 melanoma) [µM] | TGI (SK-MEL-28 melanoma) [µM] | TGI (SK-MEL-5 melanoma) [µM] | TGI (SN12C renal) [µM] | TGI (SW-620 colon) [µM] | TGI (T-47D breast) [µM] | TGI (U251 CNS) [µM] | TGI (HCT-15 colon) [µM] |
| --- | --- | --- | --- | --- | --- | --- | --- | --- | --- | --- | --- | --- | --- |
| O=C(O)c1c(CC(Cc2ccc3c(c2)CCCC3)C(=O)O)ccc2c1CCCC2 (stereo not drawn) | > 100 | > 100 |  | > 100 | > 100 | > 100 | > 100 | > 100 | > 100 | > 100 | > 100 | > 100 | > 100 |
| CC1=C/C(=N/N2C(=O)/C(=C/c3ccc(Cl)cc3)N=C2c2ccccc2)CC(C)(C)C1 | > 100 | > 100 | > 100 | > 100 | > 100 | 96 | > 100 | > 100 | > 100 | > 100 | > 100 | 69.7 | > 100 |
| CCCn1cnc2c(NN=O)ncnc21 |  |  | > 100 | > 100 | > 100 |  | > 100 | > 100 |  | > 100 | > 100 | > 100 | > 100 |
| Oc1ccc2c(c1)OCC(O)(c1ccccc1O)C2 (stereo not drawn) |  | > 100 | > 100 | > 100 | > 100 | > 100 | > 100 | > 100 | > 100 | > 100 | > 100 | > 100 | > 100 |
| COc1ccc(CNc2nc(NCc3ccc(OC)cc3)nc(Nc3ccccc3)n2)cc1 | > 100 |  | > 100 | > 100 | 40.3 | > 100 | > 100 | > 100 | > 100 | > 100 | > 100 | > 100 | 13.5 |
| COC1(OC)N=C(N)C2(C#N)C(C)CC(=O)N(N(C)C)C12C#N (stereo not drawn) | > 100 | > 100 |  | > 100 | > 100 | > 100 | > 100 | > 100 | > 100 | > 100 | > 100 | > 100 | > 100 |
| O=[N+]([O-])c1ccc(Cl)cc1C1ON=C(c2ccccc2)N1C12CC3CC(CC(C3)C1)C2 (stereo not drawn) | > 100 | > 100 | > 100 |  | > 100 | > 100 | > 100 | > 100 | > 100 |  | > 100 | > 100 | > 100 |
| N#CCCC(CC#N)N1CCN(CCO)CC1 (stereo not drawn) | > 100 |  | > 100 | > 100 | > 100 |  | > 100 | > 100 | > 100 | > 100 | > 100 | > 100 | > 100 |
| Oc1cc(Cl)cc2cc(Br)cnc12 | > 42.6 |  | > 100 | > 26.9 | 47.9 |  | > 100 | 3.24 | > 100 | > 100 | > 59.6 | 98.1 | > 100 |
| Cn1c(C(C#N)c2cc(Cl)ncn2)nc2ccccc21 (stereo not drawn) | > 100 | > 100 | > 100 | > 100 | > 100 |  | > 100 | > 100 | > 100 | > 100 | > 100 | > 100 | > 100 |
| C#CC(O)/C=C/CCCCCCC#CC/C=C\CC#CCCCCCC/C=C/C(O)C#C (stereo not drawn) | 10.2 | 0.0282 | 10.1 | 13.1 |  | 6.8 | 4.58 | 3.14 | 4.02 | 7.3 | 5.85 | 26 | 6.94 |
| CCOC(=O)CCC(C(=O)OCC)n1nc2ccc(Nc3c(C)[n+]([O-])c4cc(Cl)ccc4[n+]3[O-])cc2n1 (stereo not drawn) | > 100 | > 100 | > 100 | > 100 | > 100 | > 100 |  | > 100 | > 100 | > 100 | > 100 | > 100 | > 100 |
| COc1nn(Cc2ccccc2F)c2ccc([N+](=O)[O-])cc12 | > 100 | > 100 | > 100 | > 100 |  | > 100 | > 100 | > 100 | > 100 | > 100 | > 100 | > 100 | > 100 |
| CC(C)(C)NC(NC(C)(C)C)=C(C(Cl)=C(Cl)Cl)[N+](=O)[O-] | > 100 | > 100 | > 100 | > 100 | > 100 |  | > 100 | > 100 | > 100 | > 100 | > 100 | > 100 | > 100 |
| COc1cccc(NCC(=O)Nn2c(-c3ccccc3)nc3ccccc3c2=O)c1 | > 100 | > 100 | > 100 | > 100 | > 100 |  | > 100 | > 100 | > 100 | > 100 | > 100 | > 100 | > 100 |
| Oc1[nH]c2ccccc2c1N=NC1=NCCCCN1 | > 100 | > 100 | > 100 | > 100 | > 100 | > 100 |  | > 100 | > 100 | > 100 | > 100 | > 100 | > 100 |
| CCOC(=O)CCC(NC(=O)c1ccc(CNc2nc3cc(N)cc(N)c3nc2-c2ccccc2)cc1)C(=O)OCC (stereo not drawn) | > 100 | > 100 | 42 | > 100 |  | > 87.9 | 66.6 | > 100 | > 90.2 | > 100 | 49.1 | > 100 | > 100 |
| Cc1ccc(C(=O)CC(Cl)=C(Cl)Cl)cc1 | > 100 | > 100 | > 100 | > 100 | 74.3 | > 100 | > 100 | > 100 |  | > 100 | > 100 | > 100 | > 100 |
